Measurements published in PMC7034072, “Discovery of small molecule inhibitors of Leishmania braziliensis Hsp90 chaperone” (Journal of Enzyme Inhibition and Medicinal Chemistry, 2020).

What was measured:
[1] = test system: promastigote form of L. braziliensis; assay: Cell viability assay (MTT/PMS), single concentration; assay type: cell-based; settings: L. braziliensis promastigotes; for Cell viability / reduced cell viability: 200 μM/well; for Cell viability: MTT/PMS, Yes = leishmanicidal activity; for reduced cell viability: after 72 h
Procedure: The leishmanicidal activity of the compounds was tested in vitro against the promastigote form of L. braziliensis applying 200 μM/well, (with a total of 0.5% DMSO) into 90 μL of culture. The concentration of L. braziliensis (MHOM/BR/1973/M2269) was adjusted to 10^7 cells/mL. Amphotericin (100 μM/well) was used as positive control, and 0.5% DMSO as negative control.
The plates were incubated at room temperature (RT) for 72 h. After this period, the viability of the promastigotes was verified via MTT (3–(4, 5-Dimethylthiazol-2-yl)-2, 5-Diphenyltetrazolium Bromide) colorimetric assay. MTT/PMS 11.1 μL/well solution (MTT = 5 mg/mL; Phenazine methosulfate-PMS = 0.22 mg/mL) was added, and the plate was incubated at RT for 4 h, at 150 RPM, protected from light. Formazan crystals were then solubilised by adding 100 μL/well of a solubilisation solution containing 7% SDS, 10 mM HCl and 30% DMSO. The mixture was incubated at RT for 90 min at 150 RPM protected from light. Wells containing the medium and the compounds or DMSO without MTT were used as blank controls. The absorbance was quantified in a plate reader (Biotek Synergy HT) at 570 nm.
The cell viability percentages were calculated by the following equation: (1) Cell viability %= AT−AB/AU−AB ×100 where AT was an averaged absorbance from treated samples, AB blank absorbance and AU was an averaged absorbance from negative control.

[2] = test system: LbHsp90 and LbHsp90N recombinant proteins; assay: Differential scanning fluorimetry (thermal shift assay); assay type: binding, L. braziliensis; settings: DSF; for Thermal shift: inclusion criterion Tm variation greater or equal to ± 2 °C in LbHsp90 or LbHsp90N, Yes/No
Procedure: The interaction of Hsp90 proteins with different compounds was monitored through the melting temperature (Tm) of each protein in the presence of a fixed concentration of the target compound by differential scanning fluorimetry (DSF) also referred as thermal shift assay. A final concentration of 10 µM of dimeric LbHsp90 and 20 µM of monomeric LbHsp90N in 40 mM Hepes buffer (pH 7.5) containing 100 mM KCl were used. The DMSO concentration in each sample was fixed at 2.5% (v/v). Prior to the readings, the samples were incubated for 30 min on ice. The fluorophore Sypro Orange (Life Technologies) was used as fluorescent probe. The experiments were performed at a thermocycler CFX96 Touch Real Time PCR Detection System (BioRad) and the data were analysed using the CFX Manager software (BioRad). As positive controls, 100 µM of GA and Radicicol (RDC) were used.

[3] = test system: Balb-c 3T3 clone A31 mouse fibroblasts; assay: Cytotoxic assay (MTT); assay type: cell-based; settings: Balb-c 3T3 mouse fibroblasts, 72 h, 37 °C
Procedure: Compounds cytotoxicity was evaluated in 100 μL of Balb-c 3T3 cone A31 mouse fibroblasts (10^5 cells/mL) into a 96-well plate, incubated for 24 h at 37 °C to become adhered. After this period, the medium was washed and 100 μL of each compound was added to the culture medium (concentration ranging from 1 to 200 μM/well, with a total of 0.5% DMSO) in quadruplicate. Rapamycin was used as a positive control, and 0.5% DMSO was used as negative control. The plates were incubated for 72 h at 37 °C. After this, the viability of Balb-c 3T3 cells was evaluated by MTT colorimetric assay, as described previously.

[4] = test system: promastigote forms of L. braziliensis; assay: In vitro IC50 determination (leishmanicidal activity, MTT/PMS); assay type: cell-based; settings: promastigotes, 72 h, RT
Procedure: Amphotericin 100 μM/well and 0.5% DMSO were used as positive and negative control, respectively. The plates were incubated at RT for 72 h. After this, the viability of the promastigotes was verified by MTT/PMS colorimetric assay, as described above. In vitro leishmanicidal activity, expressed as IC50, was determined using GraphPad Prism 5 software according to the following equation: (2) y= Amin + Amax−Amin/1+10^logIC50 −x*Hillslope where Amin and Amax are, respectively, the minimum and maximum activities obtained, x is the ligand concentration and Hill Slope is the parameter that describes the steepness of the curve.
The selectivity index parameter was obtained by the ratio of compound IC50 against mammalian cells and compound IC50 against promastigote cells.

hHsp90βN = target: T1, hHsp90βN (Homo sapiens, UniProt P08238); assay: Tryptophan fluorescence quenching interaction assay; assay type: binding; settings: N-terminal domain; for Kd: read-out: KDapp hHsp90βN
T1 construct: N-terminal domain construct (Hsp90βN – residues 1–223); His-tag (cleaved yes); made in house; host or cells: Escherichia coli BL21(DE3)
Procedure: (§1) Two µM of protein in 40 mM Hepes buffer (pH 7.5), 100 mM KCl, was incubated for 30 min on ice with increasing concentrations of the compounds diluted in DMSO. […] The samples were excited at 280 nm and the emission was collected in the 300–400 nm range, in a 1.0 × 0.2 cm optical path cuvette, on an F-4500 Fluorescence Spectrophotometer (Hitachi). The fluorescence quenching was analysed at the maximum emission wavelength in the absence of ligand. The determination of the apparent dissociation constant (KDapp) was performed by fitting the fluorescence values obtained for each compound concentration according to a dose-response model through the Equation (3): (3) y = Fmin + (Fmax−Fmin)/(1+10^(logKD− [ligand])) where Fmin and Fmax are the minimum and maximum fluorescence intensity and [ligand] is the compound concentration used in the assay, according to the GraphPad Prism 5 software. The fluorescence intensities were corrected by inner filter effects as previously described.

hHsp90β [5] = target: T2, hHsp90β (Homo sapiens, UniProt P08238); assay: as above; assay type: binding; settings: for Kd: read-out: KDapp hHsp90β
T2 construct: made in house; host or cells: Escherichia coli BL21(DE3)
Procedure: as §1

LbHsp90 [6] = target: T3, LbHsp90 (Leishmania braziliensis, UniProt A4HL70); assay: as above; assay type: binding; settings: for Kd: full-length, tryptophan fluorescence quenching, read-out: KDapp LbHsp90
Procedure: as §1

hHsp90β [7] = target: T2, hHsp90β; assay: ATPase activity inhibition assay (EnzChek Pi quantification); assay type: biochemical; settings: 50 μM compound, 2 μM enzyme, 2.5 mM ATP
Procedure: (§2) The ATPase activity of LbHsp90 and hHsp90β was evaluated spectrophotometrically through inorganic phosphate (Pi) quantification following ATP hydrolysis, by the EnzChek™ assay kit (Invitrogen®) as previous described[31]^,[34]. Briefly, a 2 µM solution of LbHsp90 and hHsp90β enzymes was prepared in 150 mM NaCl, 5 mM MgCl2 and 20 mM Tris-HCl, pH 7.5, and incubated with ATP (concentration range 0–5 mM) for 60 min at 37 °C. Then, the chromogenic substrate 2-amino-6-mercapto 7-methyl purine riboside (MESG) and the purine nucleoside phosphorylase (PNP) were added and the resulting reaction mixture was incubated for 30 min at 37 °C. The assays were performed in a 96-well plate and kinetic parameters determined by Michaelis–Menten fitting using GraphPad Prism 6 software.
(§3) Initial screenings were performed using 50 μM compound concentration in a reaction mixture consisting of 2 μM enzyme and 2.5 mM ATP. After 1 h incubation at 37 °C, MESG and PNP were added. The amount of Pi was estimated after 30 min incubation at 37 °C. […] A compound concentration ranging from 1 to 75 μM was included in the reaction mixture and Pi quantification performed as previously described (measurements were performed in triplicate). IC50 values were determined by non-linear regression data fitting (using GraphPad Prism 6 software).

LbHsp90 [8] = target: T3, LbHsp90; assay: as above; assay type: biochemical; settings: compound 1 to 75 μM, triplicate; read-out: IC50 LbHsp90 ATPase activity inhibition
Procedure: as §2
as §3, with “The inhibitory activity against LbHsp90 and hHsp90β of compounds showing interaction in DSF assays (namely Glb08, Glb15, Gl23, Glb25 and Glb27) was determined using spectrophotometric ATPase activity assays as described above. Initial” for “Initial”, “°C. GA was used as reference compound, reporting 100% ATPase activity inhibition (at 50 μM).” for “°C.”

[9] = full-length, tryptophan fluorescence quenching

T2 sequence (P08238 whole entry): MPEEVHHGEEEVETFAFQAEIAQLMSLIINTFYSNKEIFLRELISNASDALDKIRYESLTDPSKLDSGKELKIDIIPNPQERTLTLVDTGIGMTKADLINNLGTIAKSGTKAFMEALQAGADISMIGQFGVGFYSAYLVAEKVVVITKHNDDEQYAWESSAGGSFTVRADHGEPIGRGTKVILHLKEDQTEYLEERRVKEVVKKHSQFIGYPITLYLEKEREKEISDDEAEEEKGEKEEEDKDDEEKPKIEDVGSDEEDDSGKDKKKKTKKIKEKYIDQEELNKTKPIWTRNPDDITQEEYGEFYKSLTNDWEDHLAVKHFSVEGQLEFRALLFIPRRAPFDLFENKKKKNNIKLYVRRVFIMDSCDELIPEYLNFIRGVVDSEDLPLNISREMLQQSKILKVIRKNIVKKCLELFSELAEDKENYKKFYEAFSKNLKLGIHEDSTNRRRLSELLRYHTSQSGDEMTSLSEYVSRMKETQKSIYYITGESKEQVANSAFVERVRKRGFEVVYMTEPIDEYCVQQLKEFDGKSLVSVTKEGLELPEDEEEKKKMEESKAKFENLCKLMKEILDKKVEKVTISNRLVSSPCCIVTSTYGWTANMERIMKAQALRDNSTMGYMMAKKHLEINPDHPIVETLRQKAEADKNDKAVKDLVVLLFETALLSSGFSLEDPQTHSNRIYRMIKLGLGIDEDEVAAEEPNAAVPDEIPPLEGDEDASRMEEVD
T3 sequence (A4HL70 entry or part of it): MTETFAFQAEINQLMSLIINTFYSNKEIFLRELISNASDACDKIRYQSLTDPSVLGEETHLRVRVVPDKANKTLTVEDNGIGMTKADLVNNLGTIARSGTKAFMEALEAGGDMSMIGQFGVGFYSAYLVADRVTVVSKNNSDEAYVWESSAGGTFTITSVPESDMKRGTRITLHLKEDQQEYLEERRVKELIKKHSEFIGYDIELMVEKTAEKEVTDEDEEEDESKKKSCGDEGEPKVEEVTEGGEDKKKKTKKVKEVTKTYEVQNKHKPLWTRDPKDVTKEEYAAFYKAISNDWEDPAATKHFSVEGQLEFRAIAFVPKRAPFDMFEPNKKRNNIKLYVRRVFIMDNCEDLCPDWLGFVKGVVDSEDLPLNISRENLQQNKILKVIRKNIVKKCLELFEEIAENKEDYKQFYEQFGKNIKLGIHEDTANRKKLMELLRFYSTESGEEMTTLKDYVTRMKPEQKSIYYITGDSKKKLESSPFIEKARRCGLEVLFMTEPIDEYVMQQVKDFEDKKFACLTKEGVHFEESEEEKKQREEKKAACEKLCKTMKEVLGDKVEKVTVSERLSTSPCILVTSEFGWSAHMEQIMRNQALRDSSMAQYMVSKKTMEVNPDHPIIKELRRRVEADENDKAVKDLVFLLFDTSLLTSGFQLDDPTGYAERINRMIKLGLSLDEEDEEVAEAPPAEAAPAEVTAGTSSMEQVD
T1 sequence (P08238 1-223): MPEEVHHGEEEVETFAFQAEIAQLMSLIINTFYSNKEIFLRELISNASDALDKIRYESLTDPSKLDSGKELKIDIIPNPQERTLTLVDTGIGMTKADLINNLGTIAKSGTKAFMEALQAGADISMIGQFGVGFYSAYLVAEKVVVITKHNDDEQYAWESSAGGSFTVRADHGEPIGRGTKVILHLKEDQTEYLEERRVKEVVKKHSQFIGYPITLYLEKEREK

SMILES | Cell viability ([1]; 72 h) | Thermal shift [2] | other results
Cc1cc(CSC(=N)N)cc(C(C)(C)C)n1 [Glb26] | No | No | –
CCC(=O)NCc1cccc(-c2ccnc3[nH]ccc23)c1 [Glb02] | No | positive outcomes and Yes | –
COc1ccc(C2(CNC(=N)N)CC2)cc1 [Glb20] | No | No | –
CS(=O)(=O)N1CCN(c2ccc(C(N)=O)cc2)CC1 [Glb06] | No | No | –
C[C@@H]1[C@H](O)[C@@H](C)/C=C/C=C/C=C/C=C/C=C/C=C/C=C/[C@H](O[C@@H]2O[C@H](C)[C@@H](O)[C@H](N)[C@@H]2O)C[C@@H]2O[C@](O)(C[C@@H](O)C[C@@H](O)[C@H](O)CC[C@@H](O)C[C@@H](O)CC(=O)O[C@H]1C)C[C@H](O)[C@H]2C(=O)O [Amphotericin, reference compound] | – | – | killing activity ([1]; positive control, 100 μM/well, 72 h): more than 95%
N=C(N)NCc1ccc(Oc2ccc(F)cc2)cc1 [Glb16] | Yes | positive outcomes and Yes | reduced cell viability [1]: more than 60%; IC50 [3]: 23 ± 1 µM; IC50 [4]: 12 ± 2 µM
CC(C)(C)c1cc(CSC(=N)N)cc(C(C)(C)C)c1O [Glb11] | No | positive outcomes and Yes | –
NC(=O)c1ccc(C(=O)N2CCc3ccccc32)cc1 [Glb05] | No | No | –
N=C(N)SCc1cc(=O)oc2cc3c(cc12)CCC3 [Glb18] | No | No | –
Nc1nc(Cc2ccccc2)n[nH]1 [Glb12] | No | No | –
NC(=O)Nc1cccc(C(=O)OCc2ccccc2C(F)(F)F)c1 [Glb04] | No | No | –
N=C(N)NN=Cc1ccc2cccc(OCc3ccccc3)c2n1 [Glb27] | Yes | positive outcomes and Yes | reduced cell viability [1]: more than 60%; IC50 [3]: 13 ± 2 µM; IC50 [4]: 11 ± 1 µM; Kd (hHsp90βN): 6 ± 2 µM; Kd (hHsp90β [5]; [9]): 5 ± 4 µM; Kd (LbHsp90 [6]): 7 ± 1 µM; percentage inhibition of hHsp90β ATPase activity (hHsp90β [7]): lower than 60%
NC(=O)c1cn(Cc2cccc3cccnc23)nc1-c1ccccc1 [Glb07] | No | No | –
N=C(N)SCc1ccc(C(=O)O)cc1 [Glb22] | No | No | –
N=C(N)SCc1nc2ccccc2c(=O)n1-c1ccccc1 [Glb23] | Yes | No | reduced cell viability [1]: more than 60%; IC50 [3]: 55 ± 1 µM; IC50 [4]: > 100 µM; IC50 (LbHsp90 [8]): 35 ± 1 µM; Kd (hHsp90βN): 20 ± 30 µM; Kd (hHsp90β [5]; [9]): 21 ± 9 µM; Kd (LbHsp90 [6]): 26 ± 7 µM; percentage inhibition of hHsp90β ATPase activity (hHsp90β [7]): lower than 60%
Cc1cccc(Oc2ccccc2CNC(=N)N)c1 [Glb17] | Yes | No | reduced cell viability [1]: more than 60%; IC50 [3]: 58 ± 1 µM; IC50 [4]: 4 ± 1 µM; KDapp hHsp90βN (hHsp90βN): Ambiguous^#; KDapp hHsp90β (hHsp90β [5]; [9]): Ambiguous^#; tryptophan fluorescence quenching (qualitative) (hHsp90β [5]; hHsp90β constructions): did not induce tryptophan fluorescence quenching; tryptophan fluorescence quenching (qualitative) (LbHsp90 [6]; LbHsp90 constructions): did not induce tryptophan fluorescence quenching
Cn1cc(-c2ccc(F)cc2)c2nc[nH]c(=O)c21 [Glb13] | No | No | –
N=C(N)Nc1nc(-c2ccccc2)c(CC(=O)O)s1 [Glb21] | No | No | –
Cn1c(CSC(=N)N)c(Cl)c(=O)n1-c1ccccc1 [Glb24] | No | No | –
C[C@@H]1C[C@H]2O[C@@H]2/C=C\C=C\C(=O)Cc2c(Cl)c(O)cc(O)c2C(=O)O1 [RDC, Radicicol, reference compound] | – | – | ΔTm ([2]; 100 µM positive controls, protein stabilisation): > 2.0 °C
N=C(N)NCc1nn(Cc2ccccc2)c(=O)c2ccccc12 [Glb28] | – | No | –
N=C(N)SCc1cccc(OCC(N)=O)c1 [Glb19] | No | No | –
N=C(N)NCc1cn(-c2ccccc2)nc1-c1ccccc1 [Glb14] | Yes | No | reduced cell viability [1]: more than 60%; IC50 [3]: > 200 µM; IC50 [4]: 30 ± 1 µM
NC(=O)c1ccc(-c2nccc3occc23)cc1 [Glb01] | No | No | –
